Source: patent US20260224594A1, “COMPOSITION FOR TREATING CANCER CACHEXIA, COMPRISING DIFLUNISAL OR A PHARMACEUTICALLY ACCEPTABLE SALT THEREOF” (ANIMUSCURE INC., priority 2023, published 2026)

Key:
[1] = test system: C2C12 myoblast cells; assay: Cytotoxicity of diflunisal, MTT assay; assay type: cell-based, mouse; settings: approximately 10,000 nM, 18 hours, vs control
Method: C2C12 is a myoblast cell line obtained from the C3H mouse strain, and is widely used to study muscle cell differentiation. The cells were cultured in a cell culture medium (growth medium (GM)), and muscle cell differentiation was induced in a differentiation medium (DM). DMEM containing 15% fetal bovine serum (FBS) was used as the cell culture medium, and DMEM containing 2% horse serum was used as the differentiation medium.
The cytotoxicity of diflunisal (CAS No. 22494-42-4, W06) was evaluated using an MTT assay. C2C12 myoblast cells were treated with diflunisal at concentrations of 0, 1, 10, 100, 1,000, and 10,000 nM for 18 hours, and cell viability was then confirmed using the MTT assay. Myoblast cells (1.0×10^4 cells/96 well) were allowed to react with 5 mg/mL MTT for 4 hours in a cell culture medium, and the eluted reaction product was then measured for absorbance at 570 nm.

[2] = test system: C2C12 myoblast cells; assay: Dexamethasone (DEX)-induced muscle atrophy in C2C12 myotubes; assay type: cell-based, mouse; settings: 100 μM DEX pretreatment 4 hours, diflunisal 1 μM, 24 hours in DM
Method: To determine whether diflunisal could recover or protect muscles from dexamethasone (DEX)-induced muscle atrophy, this experiment was performed using C2C12 myoblast cells. C2C12 myoblast cells were differentiated in a differentiation medium (DM) for 2 days, pretreated with 100 μM DEX for 4 hours, and then treated with diflunisal (1 μM) together with DMSO as a vehicle. Then, the C2C12 myoblast cells were further cultured in DM for 24 hours. Immunofluorescence staining was performed on dexamethasone-treated C2C12 myotube cells using an MHC antibody to compare and analyze the degree of myotube formation. […] Also, when the expression level of atrogin-1, which is a muscle atrophy marker, was confirmed through immunoblotting, it was confirmed that its expression increased when dexamethasone was administered.

[3] = test system: C2C12 cell lines; assay: Immunoblotting of differentiation markers MHC and myogenin; assay type: cell-based, mouse; settings: positive control ursolic acid (UA)
Method: C2C12 is a myoblast cell line obtained from the C3H mouse strain, and is widely used to study muscle cell differentiation. The cells were cultured in a cell culture medium (growth medium (GM)), and muscle cell differentiation was induced in a differentiation medium (DM). DMEM containing 15% fetal bovine serum (FBS) was used as the cell culture medium, and DMEM containing 2% horse serum was used as the differentiation medium. To induce muscle cell differentiation, cells were seeded in a cell culture medium and cultured. When the density of cells reached approximately 80% to 90%, the medium was replaced with a differentiation medium, and differentiation was induced for approximately 2 to 3 days. To analyze the effect of diflunisal on the differentiation of muscle stem cells, MHC immunofluorescence staining was performed (FIG. 2). […] On day 3 of differentiation induction, immunofluorescence staining was performed using an MHC antibody to compare and analyze the degree of myotube formation. […] In addition, the expression levels of differentiation markers were confirmed through immunoblotting.

[4] = test system: muscle cells (myotubes) in cancer cell culture medium (CM); assay: Cachexia induced by cancer cell culture medium (CM) in muscle cells; assay type: cell-based; settings: 10, 100, 1,000 nM
Method: To confirm the amelioration effect of diflunisal on cancer cachexia, cancer cachexia was induced in muscle cells using a cancer cell culture medium (CM) (FIG. 11, top). […] Also, the diameter of the myotubes was measured to confirm the improvement.

[5] = test system: C57BL/6 male mice with CTX-induced muscle damage; assay: Stem cell proliferation in cardiotoxin (CTX) muscle damage animal model, BrdU staining of TA muscle; assay type: in vivo, mouse; settings: oral 0.02 mg/kg for 2 weeks, CTX injection, then 0.02 mg/kg for 3 days
Method: C57BL/6 male mice were orally administered diflunisal at a dose of 0.02 mg/kg for 2 weeks, and then on the second week, 10 μM cardiotoxin (CTX) was directly injected into the muscle at 2 μL per g of body weight to induce muscle damage. Thereafter, diflunisal was administered at a dose of 0.02 mg/kg for 3 days. Then, immunofluorescence staining was performed on the TA muscle tissue of the mice using a BrdU antibody. […] Also, a quantitative comparison confirmed that the proportion of BrdU-positive cells increased by more than 2.5 times compared to the control when the cells were treated with diflunisal (FIG. 8).

[6] = test system: C2C12 myoblast cells; assay: Myoblast proliferation, BrdU staining; assay type: cell-based, mouse; settings: 1 μM, approximately 20 hours
Method: To analyze the effect of diflunisal on the proliferation of myoblast cells, a BrdU staining experiment was performed. C2C12 myoblast cells were treated with DMSO as a control or diflunisal (1 μM) for approximately 20 hours, and then allowed to react with BrdU for 15 minutes. Thereafter, immunofluorescence staining was performed using an antibody against BrdU (FIG. 5A). As a result, it was confirmed that the proliferation of myoblast cells increased in the group treated with diflunisal.

[7] = test system: Pax7; assay: Pax7 mRNA expression (qRT-PCR); assay type: cell-based, mouse; settings: C2C12 cells treated with diflunisal
Text: FIGS. 5A-5B and 6 show the results of confirming the stem cell differentiation-promoting effect through administration of diflunisal. […] In addition, it was confirmed whether the expression level of Pax7, which is a muscle proliferation marker, increased due to diflunisal treatment.

[8] = test system: C57BL/6 mice injected with Lewis lung carcinoma; assay: Cancer cachexia animal model (Lewis lung carcinoma injected mice); assay type: in vivo, mouse
Method: Lewis lung carcinoma (LCC, 5×10^6 cells/mice) was injected into C57BL/6 mice to induce lung cancer. Two weeks after injection, diflunisal was orally administered daily for 21 days at a dose of 0.02 or 0.2 mpk (FIG. 13). Thereafter, the changes in body weight, tumor weight, and tumor-free body weight for each mouse were measured. […] To compare the motor ability in the cancer cachexia-induced mouse model, a grip strength test was conducted for each experimental group. […]

[9] = test system: C2C12 cell lines; assay: Muscle cell differentiation, MHC immunofluorescence staining and myotube diameter; assay type: cell-based, mouse; settings: 10, 100, 1,000, 10,000 nM, day 3 of differentiation induction
Method: C2C12 is a myoblast cell line obtained from the C3H mouse strain, and is widely used to study muscle cell differentiation. The cells were cultured in a cell culture medium (growth medium (GM)), and muscle cell differentiation was induced in a differentiation medium (DM). DMEM containing 15% fetal bovine serum (FBS) was used as the cell culture medium, and DMEM containing 2% horse serum was used as the differentiation medium. To induce muscle cell differentiation, cells were seeded in a cell culture medium and cultured. When the density of cells reached approximately 80% to 90%, the medium was replaced with a differentiation medium, and differentiation was induced for approximately 2 to 3 days. To analyze the effect of diflunisal on the differentiation of muscle stem cells, MHC immunofluorescence staining was performed (FIG. 2). […] On day 3 of differentiation induction, immunofluorescence staining was performed using an MHC antibody to compare and analyze the degree of myotube formation.

[10] = cancer cachexia-induced mice, diflunisal administered

## O=C(O)c1cc(-c2ccc(F)cc2F)ccc1O [diflunisal]
[1]
  cell viability (MTT assay): almost similar to that of the control
[2]
  MHC expression (immunofluorescence) after dexamethasone-induced atrophy: restored
  MuRF1 expression (qRT-PCR): significantly reduced
  expression level of atrogin-1 (muscle atrophy marker, immunoblotting): decreased again
[3]
  expression of differentiation marker MHC (immunoblotting): induced an increase in the expression
  expression of differentiation marker myogenin (immunoblotting): induced an increase in the expression
[4]
  diameter of myotubes in CM-induced cancer cachexia model: increased in a concentration-dependent manner
[5]; TA muscle
  increase of proportion of BrdU-positive cells compared to the control: more than 2.5 times
[5]
  proliferation of myoblast cells in TA muscle (BrdU staining): increased
[6]; vs DMSO
  proliferation of myoblast cells (BrdU immunofluorescence staining): increased
[6]; vs DMSO control
  proportion of BrdU-positive cells: significantly increased compared to the control
[7]
  relative expression level of Pax7 mRNA: increased
[8]; 0.02 mpk oral daily for 21 days, vs cancer-induced group
  tumor-free body weight: significantly increased compared to the cancer-induced group
[8]; 0.02 or 0.2 mpk oral daily for 21 days, vs cancer-induced group
  grip strength (motor ability): increased in a concentration-dependent manner
[8]; [10]
  muscle mass loss of hindlimb muscles (TA, EDL, SOL, GA): significantly improved
  reduction in fat and organ weights (white fat, visceral fat, liver, heart, spleen): improved
  relative mRNA expression level of MuRF-1: decreased again
  relative mRNA expression level of atrogin-1: decreased again
[8]; oral daily for 21 days, 0.02 or 0.2 mpk
  change (decrease) in tumor-free body weight: improved
[8]; oral daily for 21 days, 0.02 or 0.2 mpk, all experimental groups
  overall body weight: no significant change
[9]
  diameter of myotubes: increased in a concentration-dependent manner
[9]; vs DMSO control
  muscle cell differentiation (myotube formation, MHC immunofluorescence): promoted in a concentration-dependent manner
